# Experiments:
# Mus musculus [1] = assay: Tested for anticonvulsant activity by the antagonism of audiogenic seizures in DBA/2 mice and number of mice protected from tonic seizure/number of mice tested at 250 mg/kg dose after 60 mins was reported (7 out of 8); assay type: functional
# Mus musculus [2] = assay: Tested for anticonvulsant activity by the antagonism of audiogenic seizures in DBA/2 mice and number of mice protected from tonic seizure/number of mice tested at 250 mg/kg dose after 30 mins was reported (8 out of 8); assay type: functional
# Mus musculus [3] = assay: Tested for anticonvulsant activity by the antagonism of audiogenic seizures in DBA/2 mice and number of mice protected from tonic seizure/number of mice tested at 250 mg/kg dose after 120 mins was reported (2 out of 8); assay type: functional
# Mus musculus [4] = assay: Tested for the effective dose required for anticonvulsant activity when given intraperitoneally after 15 minutes in DBA/2 mice; assay type: functional; conditions: ip, 0.25 h
# Mus musculus [5] = assay: Tested for anticonvulsant activity by the antagonism of audiogenic seizures in DBA/2 mice and number of mice protected from tonic seizure/number of mice tested at 250 mg/kg dose after 15 mins was reported (8 out of 8); assay type: functional
# Mus musculus [6] = species: Mus musculus; assay: Tested for the anticonvulsant activity by the antagonism of the audiogenic seizures in DBA/2 mice after 30 minutes; assay type: functional; conditions: 0.5 h
# Mus musculus [7] = assay: Tested for anticonvulsant activity by the antagonism of audiogenic seizures in DBA/2 mice and number of mice protected from tonic seizure/number of mice tested at 250 mg/kg dose after 60 mins was reported (2 out of 8); assay type: functional
# Mus musculus [8] = assay: Tested for anticonvulsant activity by the antagonism of audiogenic seizures in DBA/2 mice and number of mice protected from tonic seizure/number of mice tested at 250 mg/kg dose after 120 mins was reported (3 out of 7); assay type: functional
# Mus musculus [9] = assay: Tested for anticonvulsant activity by the antagonism of audiogenic seizures in DBA/2 mice and number of mice protected from tonic seizure/number of mice tested at 250 mg/kg dose after 30 mins was reported (7 out of 8); assay type: functional
# Mus musculus [10] = assay: Tested for anticonvulsant activity by the antagonism of audiogenic seizures in DBA/2 mice and number of mice protected from tonic seizure/number of mice tested at 250 mg/kg dose after 15 mins was reported (5 out of 7); assay type: functional
# Mus musculus [11] = assay: Tested for anticonvulsant activity by the antagonism of audiogenic seizures in DBA/2 mice and number of mice protected from tonic seizure/number of mice tested at 250 mg/kg dose after 60 mins was reported (3 out of 8); assay type: functional
# Mus musculus [12] = assay: Tested for anticonvulsant activity by the antagonism of audiogenic seizures in DBA/2 mice and number of mice protected from tonic seizure/number of mice tested at 250 mg/kg dose after 120 mins was reported (3 out of 9); assay type: functional
# Mus musculus [13] = assay: Tested for anticonvulsant activity by the antagonism of audiogenic seizures in DBA/2 mice and number of mice protected from tonic seizure/number of mice tested at 250 mg/kg dose after 15 mins was reported (0 out of 8); assay type: functional
# Mus musculus [14] = assay: Tested for anticonvulsant activity by the antagonism of audiogenic seizures in DBA/2 mice and number of mice protected from tonic seizure/number of mice tested at 250 mg/kg dose after 30 mins was reported (1 out of 8); assay type: functional
# Mus musculus [15] = assay: Tested for anticonvulsant activity by the antagonism of audiogenic seizures in DBA/2 mice and number of mice protected from tonic seizure/number of mice tested at 250 mg/kg dose after 120 mins was reported (1 out of 8); assay type: functional
# Mus musculus [16] = assay: Tested for anticonvulsant activity by the antagonism of audiogenic seizures in DBA/2 mice and number of mice protected from tonic seizure/number of mice tested at 250 mg/kg dose after 60 mins was reported (4 out of 8); assay type: functional
# Mus musculus [17] = assay: Tested for anticonvulsant activity by the antagonism of audiogenic seizures in DBA/2 mice and number of mice protected from tonic seizure/number of mice tested at 250 mg/kg dose after 15 mins was reported (1 out of 8); assay type: functional
# Mus musculus [18] = assay: Tested for the effective dose required for anticonvulsant activity when given intraperitoneally after 30 minutes in DBA/2 mice; assay type: functional; conditions: ip, 0.5 h
# Mus musculus [19] = assay: Tested for anticonvulsant activity by the antagonism of audiogenic seizures in DBA/2 mice and number of mice protected from tonic seizure/number of mice tested at 250 mg/kg dose after 30 mins was reported (5 out of 8); assay type: functional
# Mus musculus [20] = assay: Tested for anticonvulsant activity by the antagonism of audiogenic seizures in DBA/2 mice and number of mice protected from tonic seizure/number of mice tested at 250 mg/kg dose after 120 mins was reported (0 out of 6); assay type: functional
# Mus musculus [21] = assay: Tested for anticonvulsant activity by the antagonism of audiogenic seizures in DBA/2 mice and number of mice protected from tonic seizure/number of mice tested at 250 mg/kg dose after 15 mins was reported (4 out of 8); assay type: functional
# Mus musculus [22] = assay: Tested for anticonvulsant activity by the antagonism of audiogenic seizures in DBA/2 mice and number of mice protected from tonic seizure/number of mice tested at 250 mg/kg dose after 60 mins was reported (1 out of 6); assay type: functional
# Mus musculus [23] = assay: Tested for anticonvulsant activity by the antagonism of audiogenic seizures in DBA/2 mice and number of mice protected from tonic seizure/number of mice tested at 250 mg/kg dose after 30 mins was reported (1 out of 6); assay type: functional
# Mus musculus [24] = assay: Tested for anticonvulsant activity by the antagonism of audiogenic seizures in DBA/2 mice and number of mice protected from tonic seizure/number of mice tested at 250 mg/kg dose after 30 mins was reported (0 out of 8); assay type: functional
# Mus musculus [25] = assay: Tested for anticonvulsant activity by the antagonism of audiogenic seizures in DBA/2 mice and number of mice protected from tonic seizure/number of mice tested at 250 mg/kg dose after 120 mins was reported (0 out of 8); assay type: functional
# Mus musculus [26] = assay: Tested for anticonvulsant activity by the antagonism of audiogenic seizures in DBA/2 mice and number of mice protected from tonic seizure/number of mice tested at 250 mg/kg dose after 60 mins was reported (5 out of 8); assay type: functional
# [27] = Half-life at pH 7.4; assay type: ADME; conditions: buffer
# Mus musculus [28] = assay: Tested for anticonvulsant activity by the antagonism of audiogenic seizures in DBA/2 mice and number of mice protected from tonic seizure/number of mice tested at 250 mg/kg dose after 60 mins was reported (5 out of 7); assay type: functional
# Mus musculus [29] = assay: Tested for anticonvulsant activity by the antagonism of audiogenic seizures in DBA/2 mice and number of mice protected from tonic seizure/number of mice tested at 250 mg/kg dose after 120 mins was reported (1 out of 7); assay type: functional
# Mus musculus [30] = assay: Tested for anticonvulsant activity by the antagonism of audiogenic seizures in DBA/2 mice and number of mice protected from tonic seizure/number of mice tested at 250 mg/kg dose after 15 mins was reported (7 out of 7); assay type: functional
# Mus musculus [31] = assay: Tested for anticonvulsant activity by the antagonism of audiogenic seizures in DBA/2 mice and number of mice protected from tonic seizure/number of mice tested at 250 mg/kg dose after 30 mins was reported (7 out of 7); assay type: functional
# Mus musculus [32] = assay: Tested for anticonvulsant activity by the antagonism of audiogenic seizures in DBA/2 mice and number of mice protected from tonic seizure/number of mice tested at 250 mg/kg dose after 60 mins was reported (1 out of 7); assay type: functional
# Mus musculus [33] = assay: Tested for the effective dose required for anticonvulsant activity when given intraperitoneally; assay type: functional; conditions: ip
smiles,measurement,setting,value
CC(CN(C)C)OC(=O)c1cc(O)c2c(Cl)cc(Cl)cc2n1 (stereo unspecified),No. of mouse protected,Mus musculus [1],7
same,No. of mouse protected,Mus musculus [2],8
same,No. of mouse protected,Mus musculus [3],2
same,ED50,Mus musculus [4],62 mg/kg
same,No. of mouse protected,Mus musculus [5],8
same,ED50,Mus musculus [6],138 mg/kg
CN(C)CCCOC(=O)c1cc(O)c2c(Cl)cc(Cl)cc2n1,No. of mouse protected,Mus musculus [7],2
same,No. of mouse protected,Mus musculus [8],3
same,No. of mouse protected,Mus musculus [9],7
same,No. of mouse protected,Mus musculus [10],5
O=C(OCCN1CCOCC1)c1cc(O)c2c(Cl)cc(Cl)cc2n1,No. of mouse protected,Mus musculus [11],3
same,No. of mouse protected,Mus musculus [12],3
same,No. of mouse protected,Mus musculus [13],0
same,No. of mouse protected,Mus musculus [14],1
CN(C)CCNC(=O)c1cc(O)c2c(Cl)cc(Cl)cc2n1,No. of mouse protected,Mus musculus [15],1
same,No. of mouse protected,Mus musculus [16],4
same,No. of mouse protected,Mus musculus [17],1
same,ED50,Mus musculus [18],303 mg/kg
same,No. of mouse protected,Mus musculus [19],5
C[N+](C)(C)CCNC(=O)c1cc(O)c2c(Cl)cc(Cl)cc2n1.[I-],No. of mouse protected,Mus musculus [20],0
same,No. of mouse protected,Mus musculus [21],4
same,No. of mouse protected,Mus musculus [22],1
same,No. of mouse protected,Mus musculus [23],1
O=C(NCCN1CCOCC1)c1cc(O)c2c(Cl)cc(Cl)cc2n1,No. of mouse protected,Mus musculus [24],0
same,No. of mouse protected,Mus musculus [7],2
same,No. of mouse protected,Mus musculus [17],1
same,No. of mouse protected,Mus musculus [25],0
O=C(OCCN1CCCC1)c1cc(O)c2c(Cl)cc(Cl)cc2n1,No. of mouse protected,Mus musculus [26],5
same,No. of mouse protected,Mus musculus [9],7
same,ED50,Mus musculus [4],128 mg/kg
same,No. of mouse protected,Mus musculus [5],8
same,No. of mouse protected,Mus musculus [25],0
CCN(CC)CCOC(=O)c1cc(O)c2c(Cl)cc(Cl)cc2n1,No. of mouse protected,Mus musculus [15],1
same,half-life,[27],22 min
same,No. of mouse protected,Mus musculus [2],8
same,ED50,Mus musculus [18],171 mg/kg
same,ED50,Mus musculus [4],98 mg/kg
same,No. of mouse protected,Mus musculus [5],8
same,No. of mouse protected,Mus musculus [28],5
CC(C)N(CCOC(=O)c1cc(O)c2c(Cl)cc(Cl)cc2n1)C(C)C,No. of mouse protected,Mus musculus [29],1
same,No. of mouse protected,Mus musculus [30],7
same,No. of mouse protected,Mus musculus [31],7
same,No. of mouse protected,Mus musculus [32],1
same,ED50,Mus musculus [4],152 mg/kg
O=C(O)c1cc(O)c2c(Cl)cc(Cl)cc2n1,No. of mouse protected,Mus musculus [24],0
same,ED50,Mus musculus [33],250 mg/kg

# — ChEMBL document CHEMBL1127098, “Anticonvulsant activity of glycine-site NMDA antagonists. 1. 2-carboxyl prodrugs of 5,7-dichlorokynurenic acid” (Bioorg Med Chem Lett, 1993)
